According to US20060194756A1 (priority 2004, published 2006):
Where two headings read alike, the source gives them in different places.

What was measured:
[1] = tested on: HIF-1α protein expression in A375 melanoma cells; assay: HIF-1α protein accumulation in A375 cells (immunoblot, densitometry); type: cell-based, human; conditions: for prevention of adenosine-induced HIF-1α protein expression: adenosine 100 μM, antagonist 100 nM, hypoxia 4 hours; for abrogation of the effect of Cl-IB-MECA in HIF-1α modulation: antagonist 10 and 100 nM, Cl-IB-MECA 10 and 100 nM; for inhibition of Cl-IB-MECA-induced increase of HIF-1α protein expression: U0126 10 and 30 μM, SB202190 1 and 10 μM
Procedure: (§1) Cell culture and hypoxia treatment: Cells were maintained in DMEM (A375), EMEM (NCTC 2544) or RPMI 1640 (U87MG, U2OS) medium containing 10% fetal calf serum, penicillin (100 U/ml), streptomycin (100 ug/ml), and L-glutamine (2 mM) at 37° C. in 5% CO2/95% air. Cells were passaged two or three times weekly at a ratio between 1:5 and 1:10. Hypoxic exposure was in BBL™ GasPak pouch™ System (Becton Dickinson) that reduce oxygen concentration of less than 2% within 2 hours of incubation at 35° C.
Cells were harvested and washed with ice-cold PBS containing 1 mM sodium orthovanadate, AEBSF 104 mM, aprotinin 0.08 mM, leupeptin 2 mM, bestatin 4 mM, pepstatin A 1.5 mM, E-64 1.4 mM. Cells were then lysed in Triton lysis buffer. The protein concentration was determined using BCA protein assay kit (Pierce). […] The gel was then electroblotted onto a nitrocellulose membrane. Membranes were blocked with 5% nonfat dry milk in PBS containing 0.1% Tween-20 and incubated with antibodies against HIF-1α (1:250 dilution) and HIF-1β (1:1000 dilution) in 5% nonfat dry milk in PBS/0.1% Tween-20 overnight at 4° C. Aliquots of total protein sample (50 μg) were analyzed using antibodies specific for phosphorylated (Thr183/Tyr185) or total p44/p42 MAPK (1:5000 dilution), phosphorylated (Thr180/Tyr182) or total p38 MAPK (1:1000 dilution) and for A3 receptor (1 μg/ml dilution). Filters were washed and incubated for 1 hour at room temperature with peroxidase-conjugated secondary antibodies against mouse and rabbit IgG (1:2000 dilution). […] The membranes were then stripped and reprobed with tubulin (1:250) to ensure equal protein loading.
U0126 was used at 10 and 30 uM as inhibitor of MEK-1 and MEK-2 to prevent p44 and p42 MAPK activation. SB202190 was used at 1 and 10 μM as inhibitor of p38 MAPK.
(§2) Densitometry analysis: The intensity of each band in immunoblot assay was quantified using molecular analyst/PC densitometry software (Bio-Rad). […] The data were presented as the mean±S.E., and analyzed by the Student's test.

[2] = tested on: HIF-1β protein expression in A375 melanoma cells; assay: HIF-1β protein expression in A375 cells (immunoblot); type: cell-based, human; conditions: hypoxia (Cl-IB-MECA: normoxia and hypoxia)
Procedure: as §1
Cells were harvested and washed with ice-cold PBS containing 1 mM sodium orthovanadate, AEBSF 104 mM, aprotinin 0.08 mM, leupeptin 2 mM, bestatin 4 mM, pepstatin A 1.5 mM, E-64 1.4 mM. Cells were then lysed in Triton lysis buffer. The protein concentration was determined using BCA protein assay kit (Pierce). Equivalent amounts of protein (35 ug) were subjected to electrophoresis on 7.5% sodium dodecyl sulfate-acrylamide gel. The gel was then electroblotted onto a nitrocellulose membrane. Membranes were blocked with 5% nonfat dry milk in PBS containing 0.1% Tween-20 and incubated with antibodies against HIF-1α (1:250 dilution) and HIF-1β (1:1000 dilution) in 5% nonfat dry milk in PBS/0.1% Tween-20 overnight at 4° C. Aliquots of total protein sample (50 μg) were analyzed using antibodies specific for phosphorylated (Thr183/Tyr185) or total p44/p42 MAPK (1:5000 dilution), phosphorylated (Thr180/Tyr182) or total p38 MAPK (1:1000 dilution) and for A3 receptor (1 μg/ml dilution). Filters were washed and incubated for 1 hour at room temperature with peroxidase-conjugated secondary antibodies against mouse and rabbit IgG (1:2000 dilution). […] The membranes were then stripped and reprobed with tubulin (1:250) to ensure equal protein loading.

[3] = intact anesthetized rabbits studied in situ; cited from earlier work
[4] = tested on: HIF-1α protein expression in NCTC 2544 keratinocytes; assay: HIF-1α protein expression in NCTC 2544 keratinocytes under hypoxia; type: cell-based, human; conditions: NCTC 2544, Cl-IB-MECA 100 nM, 4 hours of hypoxia
Procedure: as §1
(§3) Cells were harvested and washed with ice-cold PBS containing 1 mM sodium orthovanadate, AEBSF 104 mM, aprotinin 0.08 mM, leupeptin 2 mM, bestatin 4 mM, pepstatin A 1.5 mM, E-64 1.4 mM. Cells were then lysed in Triton lysis buffer. The protein concentration was determined using BCA protein assay kit (Pierce). Equivalent amounts of protein (35 ug) were subjected to electrophoresis on 7.5% sodium dodecyl sulfate-acrylamide gel. The gel was then electroblotted onto a nitrocellulose membrane. […] Aliquots of total protein sample (50 μg) were analyzed using antibodies specific for phosphorylated (Thr183/Tyr185) or total p44/p42 MAPK (1:5000 dilution), phosphorylated (Thr180/Tyr182) or total p38 MAPK (1:1000 dilution) and for A3 receptor (1 μg/ml dilution). […]

[5] = tested on: p44/p42 MAPK phosphorylation in A375 cells; assay: p44/p42 MAPK phosphorylation in hypoxic A375 cells (immunoblot); type: cell-based, human; conditions: 4 hours in hypoxia
Procedure: (§4) Cells were harvested and washed with ice-cold PBS containing 1 mM sodium orthovanadate, AEBSF 104 mM, aprotinin 0.08 mM, leupeptin 2 mM, bestatin 4 mM, pepstatin A 1.5 mM, E-64 1.4 mM. Cells were then lysed in Triton lysis buffer. The protein concentration was determined using BCA protein assay kit (Pierce). Equivalent amounts of protein (35 ug) were subjected to electrophoresis on 7.5% sodium dodecyl sulfate-acrylamide gel. The gel was then electroblotted onto a nitrocellulose membrane. Membranes were blocked with 5% nonfat dry milk in PBS containing 0.1% Tween-20 and incubated with antibodies against HIF-1α (1:250 dilution) and HIF-1β (1:1000 dilution) in 5% nonfat dry milk in PBS/0.1% Tween-20 overnight at 4° C. Aliquots of total protein sample (50 μg) were analyzed using antibodies specific for phosphorylated (Thr183/Tyr185) or total p44/p42 MAPK (1:5000 dilution), phosphorylated (Thr180/Tyr182) or total p38 MAPK (1:1000 dilution) and for A3 receptor (1 μg/ml dilution). Filters were washed and incubated for 1 hour at room temperature with peroxidase-conjugated secondary antibodies against mouse and rabbit IgG (1:2000 dilution). […]
as §2

[6] = tested on: p38 MAPK phosphorylation in A375 cells; assay: p38 MAPK phosphorylation in hypoxic A375 cells (immunoblot); type: cell-based, human; conditions: 4 hours in hypoxia, various concentrations
Procedure: as §4, §2

[7] = tested on: HIF-1α protein expression in U87MG glioblastoma cells; assay: HIF-1α protein expression in U87MG glioblastoma cells under hypoxia; type: cell-based, human; conditions: Cl-IB-MECA 100 nM, 4 hours of hypoxia
Procedure: as §1, §3

[8] = tested on: HIF-1α protein expression in U2OS osteosarcoma cells; assay: HIF-1α protein expression in U2OS osteosarcoma cells under hypoxia; type: cell-based, human; conditions: Cl-IB-MECA 100 nM, 4 hours of hypoxia
Procedure: as §1, §3

[9] = tested on: HIF-1α protein degradation in A375 cells; assay: HIF-1α degradation after return of hypoxic A375 cells to normoxia; type: cell-based, human; conditions: Cl-IB-MECA 100 nM, 4 hours hypoxia then normoxia 0-15 minutes
Procedure: as §4, §2

[10] = rat 4 vessel occlusion model; cited from earlier work
[11] = transient middle cerebral artery occlusion focal ischemia; cited from earlier work
[12] = Cl-IB-MECA 100 nM, 4 hours in hypoxia

CCCn1cc2c(nc(NC(=O)Nc3ccc(OC)cc3)n3nc(-c4ccco4)nc23)n1 [MRE 3008F20]
prevention of adenosine-induced HIF-1α protein expression [1]: abrogated
abrogation of the effect of Cl-IB-MECA in HIF-1α modulation ([1]; hypoxia): able to abrogate
IC50 ([1]; read-out: IC50 for inhibition of HIF-1α protein increase induced by 10 nM Cl-IB-MECA, hypoxia 4 hours, MRE 3008F20 0.3-30 nM): 0.9 ± 0.08 nM
modulation of HIF-1β protein expression [2]: neither MRE 3008F20 nor MRE 3005F20 had any effect

C[C@H](Cc1ccccc1)Nc1ncnc2c1ncn2[C@@H]1O[C@H](CO)[C@@H](O)[C@H]1O [PIA, N^6-1-(phenyl-2R-isopropyl) adenosine]
cardioprotection [3]: pharmacologically induce cardioprotection

CNC(=O)[C@H]1O[C@@H](n2cnc3c(NCc4cccc(I)c4)nc(Cl)nc32)[C@H](O)[C@@H]1O [Cl-IB-MECA]
HIF-1α protein levels in CoCl2-treated cells ([1]; 100 μM CoCl2, normoxia, 4 hours): able to increase the levels of HIF-1α protein
HIF-1α levels in cells exposed to cycloheximide ([1]; 100 μM CoCl2, normoxia, Cl-IB-MECA 100 nM, CHX 1 μM, within 6 hours): failed to increase
HIF-1α protein expression in the presence of actinomycin D ([1]; Act-D 10 μg/ml, Cl-IB-MECA 100 nM, 4 hours in hypoxia): able to increase HIF-1α protein expression also in the presence of Act-D
concentration inducing maximum expression of HIF-1α protein ([1]; hypoxia, 4 hours): 100 nM
time of maximum peak HIF-1α levels after addition ([1]; hypoxia, Cl-IB-MECA 100 nM): 4 h
HIF-1α protein expression under hypoxic conditions, time course ([1]; hypoxia, Cl-IB-MECA 100 nM, 2-24 hours): increased in a time-dependent manner
HIF-1α protein accumulation in normoxia ([1]; normoxia, Cl-IB-MECA 100 nM): did not promote HIF-1α protein accumulation
HIF-1α protein expression [4]: significant increase
concentration giving maximum induction of p44/p42 phosphorylation [5]: 100 nM
phosphorylation of p44 and p42 ([5]; nanomolar concentrations): induced
phosphorylation of p38 MAPK [6]: increased the phosphorylation of p38 MAPK in a dose-dependent manner
HIF-1α protein expression [7]: significant increase
HIF-1α protein expression [8]: significant increase
HIF-1α degradation rate after removal of hypoxic conditions [9]: unchanged degradation rate
modulation of HIF-1β protein expression [2]: did not modify

Nc1nc2c(cnn2CCc2ccccc2)c2nc(-c3ccco3)nn12 [SCH 58261, 5-amino-7-(2-phenylethyl)-2-(2-furyl)-pyrazolo[4,3-e]-1,2,4-triazolo[1,5-c]pyrimidine]
prevention of adenosine-induced HIF-1α protein expression [1]: not able to prevent

CSCC[C@@H]1NC(=O)[C@H](CC(C)C)NC(=O)[C@H](CCCNC(=N)N)NC(=O)[C@H](CO)NC(=O)[C@@H]2CSSC[C@@H]3NC(=O)[C@H](CO)NC(=O)CNC(=O)[C@H]([C@@H](C)O)NC(=O)[C@H](CSSC[C@H](N)C(=O)N[C@@H](CCCCN)C(=O)NCC(=O)N[C@@H](CCCCN)C(=O)NCC(=O)N[C@@H](C)C(=O)N[C@@H](CCCCN)C(=O)N2)NC(=O)[C@H](CSSC[C@@H](C(N)=O)NC(=O)[C@H](CCCCN)NC(=O)CNC(=O)[C@H](CO)NC(=O)[C@H](CCCNC(=N)N)NC3=O)NC(=O)[C@H](CC(=O)O)NC(=O)[C@H](Cc2ccc(O)cc2)NC1=O [SNX-111]
neuroprotection [10]: neuroprotective
neuroprotection [11]: neuroprotective

Cn1cc2c(nc(NC(=O)Nc3ccncc3)n3nc(-c4ccco4)nc23)n1 [MRE 3005F20]
abrogation of the effect of Cl-IB-MECA in HIF-1α modulation ([1]; hypoxia): able to abrogate
modulation of HIF-1β protein expression [2]: neither MRE 3008F20 nor MRE 3005F20 had any effect

N#CC(=C(/N)Sc1ccccc1N)/C(C#N)=C(\N)Sc1ccccc1N [U0126]
inhibition of Cl-IB-MECA-induced increase of HIF-1α protein expression [1, 12]: able to inhibit

Nc1ncnc2c1ncn2[C@@H]1O[C@H](CO)[C@@H](O)[C@H]1O [adenosine]
modulation of HIF-1β protein expression [2]: did not observe any modulation

Oc1ccc(-c2nc(-c3ccncc3)c(-c3ccc(F)cc3)[nH]2)cc1 [SB202190]
inhibition of Cl-IB-MECA-induced increase of HIF-1α protein expression [1, 12]: able to inhibit

CCCn1c(=O)c2[nH]c(-c3cc(OCC(=O)Nc4ccc5c(c4)OCO5)nn3C)nc2n(CCC)c1=O [MRE 2029F20]
prevention of adenosine-induced HIF-1α protein expression [1]: not able to prevent
